Counter-ions that a name gives are not always drawn.
How the values were obtained:
[1] = Intrinsic dissolution rate, rotating disk apparatus; format: physicochemical; details: 100 rpm, 37±0.5° C., 500 mL
Method: Intrinsic dissolution measurements were conducted using a rotating disk apparatus. Disks of Compound 1, Compound 2 and Compound 3 were separately prepared by directly compressing 100 mg of a powder of the respectively compounds in a die at a pressure of 2500 psi for 2 minutes using a hydraulic press (Carver Press, Fred Carver, NJ, USA). The exposed surface area for the resulting disks was 0.5 cm^2. A USP dissolution apparatus maintained at 37±0.5° C. was used for the dissolution study. Each dissolution vessel contained 500 mL of aqueous dissolution medium of 0.05 N HCl or pH 6.8 20 mM phosphate buffer with 1% cetyltrimetrylammonium bromide (CTAB). The disk holder (die) was half-immersed into the dissolution medium and rotated at 100 rpm. Samples were withdrawn at specified time intervals and the amount of compound dissolved was determined by HPLC.
The amount of compound dissolved at each time point was plotted versus time and the observed dissolution rate (mg/min) was obtained from the slope of the plot. The observed dissolution rate was divided by the surface area of the compound disk (0.5 cm^2) to obtain the intrinsic dissolution rate.

[2] = Physical stability of dry granulation formulation during processing and storage (XRPD); format: physicochemical; details: intragranular blend, milled granules, final blend (FIG. 4)

Structure (SMILES) | Intrinsic dissolution rate in pH 1.3 0.05N HCl with 0.9% NaCl [1] [mg/min/cm^2] | form change by XRPD during processing [2]
c1cn2cc(-c3ccc4cn[nH]c4c3)nc(Nc3ccc(N4CCOCC4)cc3)c2n1 [Compound 1] | 0.00046 | 
c1cn2cc(-c3ccc4cn[nH]c4c3)nc(Nc3ccc(N4CCOCC4)cc3)c2n1 [bis-mesylate salt of Formula IA] |  | no form change was observed

— patent publication US9382256B2, “Formulation of Syk inhibitors” (Gilead Connecticut, Inc., priority 2013, dated 2016)
